ChEMBL document CHEMBL1649331, “Determination of CEM-101 activity tested against clinical isolates of Neisseria meningitidis from a worldwide collection” (2010)
Values after ≈ are worked out from the molar mass of the structure shown.

Columns and labels:
Format in all cases: functional
Neisseria meningitidis [1] = assay: Antimicrobial activity against Neisseria meningitidis by broth microdilution method
Neisseria meningitidis [2] = assay: Antimicrobial activity against Neisseria meningitidis assessed as resistant isolate by broth microdilution method
Neisseria meningitidis [3] = assay: Antimicrobial activity against Neisseria meningitidis assessed as susceptible isolate by broth microdilution method

| Structure (SMILES) | MIC50 (Neisseria meningitidis [1]) [µg/mL] | MIC90 (Neisseria meningitidis [1]) [µg/mL] | MIC (Neisseria meningitidis [1]) [µg/mL] | Activity (Neisseria meningitidis [2]) [%] | Activity (Neisseria meningitidis [3]) [%] |
| --- | --- | --- | --- | --- | --- |
| CO[C@H]1/C=C/O[C@@]2(C)Oc3c(C)c(O)c4c(O)c(c(/C=N/N5CCN(C)CC5)c(O)c4c3C2=O)NC(=O)/C(C)=C\C=C\[C@H](C)[C@H](O)[C@@H](C)[C@@H](O)[C@@H](C)[C@H](OC(C)=O)[C@@H]1C [RIFAMPIN] | 0.015 (≈ 0.0182 µM) | 0.03 (≈ 0.0365 µM) |  | 0 | 100 |
| O=C(O)c1cn(C2CC2)c2cc(N3CCNCC3)c(F)cc2c1=O [CIPROFLOXACIN] |  |  |  | 1.9 | 97.1 |
| C[C@H]1COc2c(N3CCN(C)CC3)c(F)cc3c(=O)c(C(=O)O)cn1c23.C[C@H]1COc2c(N3CCN(C)CC3)c(F)cc3c(=O)c(C(=O)O)cn1c23.O [LEVOFLOXACIN] | ≤ 0.008 | ≤ 0.008 | ≤ 0.008 | 1.9 | 97.1 |
| CC1(C)S[C@@H]2[C@H](NC(=O)Cc3ccccc3)C(=O)N2[C@H]1C(=O)O [PENICILLIN G] | 0.03 (≈ 0.0897 µM) | 0.12 (≈ 0.359 µM) | ≤ 0.015 | 0 | 84.5 |
| CN(C)c1ccc(O)c2c1C[C@H]1C[C@H]3[C@H](N(C)C)C(O)=C(C(N)=O)C(=O)[C@@]3(O)C(O)=C1C2=O [MINOCYCLINE] | 0.12 (≈ 0.262 µM) | 0.25 (≈ 0.546 µM) | ≤ 0.015 | 0 | 100 |
| CO/N=C(\C(=O)N[C@@H]1C(=O)N2C(C(=O)O)=C(CSc3nc(=O)c(O)nn3C)CS[C@H]12)c1csc(N)n1 [CEFTRIAXONE] | ≤ 0.015 | ≤ 0.015 |  |  | 100 |

Now from value to molecule, other results behind:

| MIC50 (Neisseria meningitidis [1]) [µg/mL] | MIC90 (Neisseria meningitidis [1]) [µg/mL] | MIC (Neisseria meningitidis [1]) [µg/mL] | Structure (SMILES) | Activity (Neisseria meningitidis [2]) [%] | Activity (Neisseria meningitidis [3]) [%] |
| --- | --- | --- | --- | --- | --- |
| 0.06 (≈ 0.0801 µM) | 0.12 (≈ 0.16 µM) | ≤ 0.015 | CC[C@H]1OC(=O)[C@H](C)[C@@H](O[C@H]2C[C@@](C)(OC)[C@@H](O)[C@H](C)O2)[C@H](C)[C@@H](O[C@@H]2O[C@H](C)C[C@H](N(C)C)[C@H]2O)[C@](C)(O)C[C@@H](C)CN(C)[C@H](C)[C@@H](O)[C@]1(C)O [AZITHROMYCIN] |  | 100 |
| ≤ 0.015 | ≤ 0.015 | ≤ 0.015 | CC[C@H]1OC(=O)[C@@](C)(F)C(=O)[C@H](C)[C@@H](O[C@@H]2O[C@H](C)C[C@H](N(C)C)[C@H]2O)[C@](C)(OC)C[C@@H](C)C(=O)[C@H](C)[C@H]2N(CCCCn3cc(-c4cccc(N)c4)nn3)C(=O)O[C@]12C [SOLITHROMYCIN] |  |  |
| 0.12 (≈ 0.164 µM) | 0.25 (≈ 0.341 µM) | ≤ 0.03 | CC[C@H]1OC(=O)[C@H](C)[C@@H](O[C@H]2C[C@@](C)(OC)[C@@H](O)[C@H](C)O2)[C@H](C)[C@@H](O[C@@H]2O[C@H](C)C[C@H](N(C)C)[C@H]2O)[C@](C)(O)C[C@@H](C)C(=O)[C@H](C)[C@@H](O)[C@]1(C)O [ERYTHROMYCIN] |  |  |
| 0.03 (≈ 0.0401 µM) | 0.12 (≈ 0.16 µM) | ≤ 0.015 | CC[C@H]1OC(=O)[C@H](C)[C@@H](O[C@H]2C[C@@](C)(OC)[C@@H](O)[C@H](C)O2)[C@H](C)[C@@H](O[C@@H]2O[C@H](C)C[C@H](N(C)C)[C@H]2O)[C@](C)(OC)C[C@@H](C)C(=O)[C@H](C)[C@@H](O)[C@]1(C)O [CLARITHROMYCIN] |  |  |
| ≤ 0.015 | 0.03 (≈ 0.0369 µM) | ≤ 0.015 | CC[C@H]1OC(=O)[C@H](C)C(=O)[C@H](C)[C@@H](O[C@@H]2O[C@H](C)C[C@H](N(C)C)[C@H]2O)[C@](C)(OC)C[C@@H](C)C(=O)[C@H](C)[C@H]2N(CCCCn3cnc(-c4cccnc4)c3)C(=O)O[C@]12C [TELITHROMYCIN] |  |  |
